Here are results for 27 compounds from patent US20240335442A1 (Eurofarma Laboratórios S.A., priority 2021, published 2024).

The target in assay [1] is human sodium channel Nav 1.8 (Homo sapiens (Human), UniProt Q9Y5Y9). The assay can be described thus: Automated whole-cell voltage-clamp (ScreenPatch 384P), Nav 1.8 sodium current, Protocol 2. Type of assay: cell-based. As to conditions: read-out: Nav1.8 IC50. The protocol:
(§1) Biological assays were performed on Chinese hamster ovary (CHO) cells expressing the human sodium channels Nav 1.8 and Nav 1.7 stably.
(§2) The experimental voltage-clamp protocol using the whole cell configuration was established on the automated ScreenPatch® 384P platform (SP384PE, Nanion Technologies, Livingston, NJ) and recording of the results was performed with a Nanion 384-well Patch Clamp chip (NPC) (Nanion Technologies, Livingston, NJ).
(§3) Compounds of Formula (I), were diluted in eight concentrations in the extracellular solution composed of physiological saline, buffered with HEPES (mM): NaCl, 137; KCl, 4; CaCl2, 3.8; MgCl2, 1; HEPES, 10; Glucose, 10; pH 7.4. The […], 50; CsF, 90; MgCl2, 5; EGTA, 5; HEPES, 10; pH 7.2. The duration of exposure of each compound with the cells expressing Nav 1.7 or Nav 1.8 was at least five minutes and the assays were performed at room temperature.
(§4) The measurements of the sodium currents of Nav 1.8 and Nav 1.7 were obtained using the voltage protocols described below: • Protocol 1: A holding voltage of-90 mV was established followed by a voltage phase of 200 ms to-120 mV, followed by a voltage step of 10 mV for 1 second for Nav 1.8 or 0 mV for Nav 1.7, followed by a step of-100 mV for 20 ms, followed by a step of 20 ms for 10 mV for Nav 1.8 or 0 mV for Nav 1.7 (TP1A) before returning to the holding voltage of-90 mV. • Protocol 2: A holding voltage of-100 mV was established followed by an inactivation voltage step at −40 mV for 8 seconds, followed by a −100 mV step for 20 ms, followed by a 20 ms step for 10 mV for Nav 1.8 or 0 mV for Nav 1.7 (TP1A) before returning to the holding voltage of-100 mV.
(§5) Protocols were repeated at a frequency of 0.1 Hz (Protocol 1) or 0.05 Hz (Protocol 2) and current amplitude was quantified over the TP1A phase log. The variation in the peak amplitude of the current was evaluated according to the Formula described below, after exposure of the cells expressing the channels, at each concentration of the different compounds:
(§6) where ITP1A,basal, and ITP1A,molecule represent the entry peaks of sodium currents into TP1A prior to exposure to the compound and in the presence of the compound, respectively.
(§7) The decrease in peak current amplitude, after exposure of the cells to the compounds, was used to calculate the percent relative blocking of the channels relative to the positive control according to the Formula below: […]
(§8) where % V and % CP represent the averages of the values of current inhibition with a vehicle (DMSO) and positive controls, respectively. The sodium currents of the positive control were considered as 100%.
(§9) where [Test] represents the concentration of the evaluated molecule, IC50 is the concentration of the compound that generates half of the maximum inhibition, N is the Hill's coefficient and % Block′ is the percentage of the sodium channel current (Nav 1.8 and Nav 1.7) inhibited at each concentration of the evaluated molecule. Data were obtained by non linear least squares regression with XL fit for Excel (Microsoft, Redmond, WA).
(§10) Compounds were tested in at least one assay to obtain the IC50 value.

Assay [2] deals with human sodium channel Nav 1.7 (Homo sapiens (Human), UniProt Q15858). The experiment in a line: Automated whole-cell voltage-clamp (ScreenPatch 384P), Nav 1.7 sodium current, Protocol 2. Type of assay: cell-based. The following applies: read-out: Nav1.7 IC50. The protocol:
as §1, §2, §3, §4, §5, §6, §7, §8, §9, §10

Some results are limits rather than exact numbers.

Sequence of human sodium channel Nav 1.7 (Q15858 whole entry): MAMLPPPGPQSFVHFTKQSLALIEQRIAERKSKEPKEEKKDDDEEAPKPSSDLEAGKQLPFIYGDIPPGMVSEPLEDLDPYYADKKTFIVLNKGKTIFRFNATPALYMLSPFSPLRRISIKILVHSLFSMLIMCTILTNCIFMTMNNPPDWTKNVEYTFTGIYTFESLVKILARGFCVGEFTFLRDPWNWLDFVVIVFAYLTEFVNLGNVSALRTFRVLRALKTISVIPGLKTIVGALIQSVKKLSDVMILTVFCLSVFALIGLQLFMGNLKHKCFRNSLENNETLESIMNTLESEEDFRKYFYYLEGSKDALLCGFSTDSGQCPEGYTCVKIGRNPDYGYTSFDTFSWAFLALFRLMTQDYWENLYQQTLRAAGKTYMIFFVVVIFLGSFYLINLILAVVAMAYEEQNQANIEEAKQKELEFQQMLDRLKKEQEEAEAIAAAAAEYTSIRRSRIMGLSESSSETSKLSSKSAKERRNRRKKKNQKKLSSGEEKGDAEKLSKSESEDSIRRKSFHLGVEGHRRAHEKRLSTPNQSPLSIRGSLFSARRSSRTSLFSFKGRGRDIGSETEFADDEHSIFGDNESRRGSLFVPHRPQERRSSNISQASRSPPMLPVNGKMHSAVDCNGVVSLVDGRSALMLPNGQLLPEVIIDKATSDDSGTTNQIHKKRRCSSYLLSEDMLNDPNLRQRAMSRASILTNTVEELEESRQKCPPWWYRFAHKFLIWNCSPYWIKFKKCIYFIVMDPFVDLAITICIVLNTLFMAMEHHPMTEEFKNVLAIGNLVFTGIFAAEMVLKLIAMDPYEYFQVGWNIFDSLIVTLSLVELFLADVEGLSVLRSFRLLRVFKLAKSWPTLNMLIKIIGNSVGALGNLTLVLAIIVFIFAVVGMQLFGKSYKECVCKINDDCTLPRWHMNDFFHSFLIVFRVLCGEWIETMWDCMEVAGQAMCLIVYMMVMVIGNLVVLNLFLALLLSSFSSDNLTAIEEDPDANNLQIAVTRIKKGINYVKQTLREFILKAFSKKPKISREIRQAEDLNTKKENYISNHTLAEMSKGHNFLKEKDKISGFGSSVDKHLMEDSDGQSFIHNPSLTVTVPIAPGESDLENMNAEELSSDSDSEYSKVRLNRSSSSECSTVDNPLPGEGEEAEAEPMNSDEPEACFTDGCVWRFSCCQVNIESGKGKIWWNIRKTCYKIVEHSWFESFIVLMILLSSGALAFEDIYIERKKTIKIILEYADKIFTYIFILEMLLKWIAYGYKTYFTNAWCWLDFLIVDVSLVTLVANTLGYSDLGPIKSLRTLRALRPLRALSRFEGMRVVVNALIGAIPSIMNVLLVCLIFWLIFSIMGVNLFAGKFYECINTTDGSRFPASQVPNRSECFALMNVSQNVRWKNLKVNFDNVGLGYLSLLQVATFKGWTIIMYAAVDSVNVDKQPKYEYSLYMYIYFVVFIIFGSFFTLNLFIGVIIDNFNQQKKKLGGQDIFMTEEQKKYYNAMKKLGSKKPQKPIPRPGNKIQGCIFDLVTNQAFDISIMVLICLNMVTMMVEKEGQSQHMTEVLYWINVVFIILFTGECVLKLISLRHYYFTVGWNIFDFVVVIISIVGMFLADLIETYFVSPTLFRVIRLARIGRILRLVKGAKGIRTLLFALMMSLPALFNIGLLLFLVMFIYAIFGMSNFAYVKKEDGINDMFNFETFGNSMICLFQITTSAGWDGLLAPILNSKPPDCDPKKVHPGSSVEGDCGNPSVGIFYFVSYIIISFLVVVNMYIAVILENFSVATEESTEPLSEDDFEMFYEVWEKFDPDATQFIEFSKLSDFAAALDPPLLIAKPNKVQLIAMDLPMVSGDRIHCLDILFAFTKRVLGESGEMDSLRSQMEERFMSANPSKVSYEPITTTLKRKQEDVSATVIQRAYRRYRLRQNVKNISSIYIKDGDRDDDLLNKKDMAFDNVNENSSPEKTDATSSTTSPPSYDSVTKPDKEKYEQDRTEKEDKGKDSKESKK
Sequence of human sodium channel Nav 1.8 (Q9Y5Y9 whole entry): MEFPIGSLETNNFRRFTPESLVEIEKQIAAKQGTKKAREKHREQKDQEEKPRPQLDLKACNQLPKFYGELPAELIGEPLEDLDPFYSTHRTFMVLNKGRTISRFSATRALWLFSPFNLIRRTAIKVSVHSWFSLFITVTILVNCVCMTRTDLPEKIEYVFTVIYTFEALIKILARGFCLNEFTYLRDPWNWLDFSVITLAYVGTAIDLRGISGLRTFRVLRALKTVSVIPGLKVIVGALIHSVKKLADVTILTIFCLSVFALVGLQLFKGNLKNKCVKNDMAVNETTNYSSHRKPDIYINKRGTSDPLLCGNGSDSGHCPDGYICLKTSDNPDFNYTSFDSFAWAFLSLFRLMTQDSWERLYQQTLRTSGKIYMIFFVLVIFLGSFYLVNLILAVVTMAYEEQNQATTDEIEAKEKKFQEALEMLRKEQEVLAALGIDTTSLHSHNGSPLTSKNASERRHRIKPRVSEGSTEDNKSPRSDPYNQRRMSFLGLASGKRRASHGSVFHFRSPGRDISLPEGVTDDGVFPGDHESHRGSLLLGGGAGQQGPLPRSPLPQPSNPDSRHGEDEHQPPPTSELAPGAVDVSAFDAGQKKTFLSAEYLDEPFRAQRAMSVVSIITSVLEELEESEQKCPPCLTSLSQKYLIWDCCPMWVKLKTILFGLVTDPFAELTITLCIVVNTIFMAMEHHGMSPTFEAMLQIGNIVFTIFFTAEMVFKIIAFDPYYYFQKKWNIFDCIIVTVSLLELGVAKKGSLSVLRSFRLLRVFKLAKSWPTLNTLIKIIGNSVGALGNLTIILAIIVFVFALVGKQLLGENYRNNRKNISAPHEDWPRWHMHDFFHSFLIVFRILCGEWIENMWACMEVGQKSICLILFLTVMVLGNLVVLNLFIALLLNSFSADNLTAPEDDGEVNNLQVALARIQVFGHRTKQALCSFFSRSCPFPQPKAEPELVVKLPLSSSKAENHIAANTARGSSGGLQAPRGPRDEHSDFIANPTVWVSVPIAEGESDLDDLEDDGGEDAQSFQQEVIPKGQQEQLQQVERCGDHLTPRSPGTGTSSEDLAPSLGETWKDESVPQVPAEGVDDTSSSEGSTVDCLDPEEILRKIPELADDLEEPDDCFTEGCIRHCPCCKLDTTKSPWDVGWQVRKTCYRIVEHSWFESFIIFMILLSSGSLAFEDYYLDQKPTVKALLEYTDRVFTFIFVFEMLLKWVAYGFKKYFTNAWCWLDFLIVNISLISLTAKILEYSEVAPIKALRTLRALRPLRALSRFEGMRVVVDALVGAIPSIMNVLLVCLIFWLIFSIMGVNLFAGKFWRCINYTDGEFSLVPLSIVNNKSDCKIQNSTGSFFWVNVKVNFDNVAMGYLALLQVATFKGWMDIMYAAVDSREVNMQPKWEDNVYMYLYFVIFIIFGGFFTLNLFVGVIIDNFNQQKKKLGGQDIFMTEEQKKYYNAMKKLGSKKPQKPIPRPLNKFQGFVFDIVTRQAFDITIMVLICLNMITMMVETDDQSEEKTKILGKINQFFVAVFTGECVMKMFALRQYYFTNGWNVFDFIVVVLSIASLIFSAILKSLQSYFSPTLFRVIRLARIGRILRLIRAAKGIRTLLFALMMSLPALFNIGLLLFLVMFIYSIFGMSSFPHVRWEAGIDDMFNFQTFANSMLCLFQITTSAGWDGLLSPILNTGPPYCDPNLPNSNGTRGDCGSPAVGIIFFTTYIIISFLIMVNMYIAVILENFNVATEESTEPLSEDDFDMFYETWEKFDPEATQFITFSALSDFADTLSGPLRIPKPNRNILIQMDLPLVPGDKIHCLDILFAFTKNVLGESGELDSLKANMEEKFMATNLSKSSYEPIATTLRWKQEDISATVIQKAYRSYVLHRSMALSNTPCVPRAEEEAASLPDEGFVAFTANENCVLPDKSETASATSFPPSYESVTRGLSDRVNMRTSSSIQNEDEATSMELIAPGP

As for `CCOc1ccc(-c2cncc(C(=O)N/N=C/c3cc(OC)cc(OC)c3OCC)n2)cc1` [Compound 14, (E)-N′-(2-ethoxy-3,5-dimethoxybenzylidene)-6-(4-ethoxyphenyl)pyrazine-2-carbohydrazide], the results for the IC50 in assay [1] and in assay [2] were 156 nM and 308 nM, respectively.
Taken in the same sequence, the figures for `COc1cc(/C=N/NC(=O)c2cncc(C)n2)cc(OC)c1` [Compound 137, (E)-N′-(3,5-dimethoxybenzylidene)-6-methylpyrazine-2-carbohydrazide] were > 1000 nM and > 10000 nM.
On the same counts, the results for `COc1cc(/C=N/NC(=O)c2cnc(C)cn2)cc(OC)c1` [Compound 138, (E)-N′-(3,5-dimethoxybenzylidene)-5-methylpyrazine-2-carbohydrazide] are > 1000 nM and > 10000 nM.
Taken in the same sequence, the figures for `COc1ccc(-c2cncc(C(=O)N/N=C/c3ccccc3C(C)(C)C)n2)cc1` [Compound 52, (E)-N′-(2-(tert-butyl)benzylidene)-6-(4-methoxyphenyl)pyrazine-2-carbohydrazide] were > 1000 nM and 3590 nM.
Regarding `COc1ccc(-c2cncc(C(=O)N/N=C/c3ccc(Br)cc3)n2)cc1` [Compound 62, (E)-N′-(4-bromobenzylidene)-6-(4-methoxyphenyl)pyrazine-2-carbohydrazide], the figures for the IC50 in assay [1] and in assay [2] were 761 nM and > 10000 nM, respectively.
Taken in the same sequence, the figures for `COc1cc(/C=N/NC(=O)c2cncc(-c3ccccc3OC3CCCC3)n2)cc(OC)c1` [Compound 161, (E)-6-(2-(cyclopentyloxy)phenyl)-N′-(3,5-dimethoxybenzylidene)pyrazine-2-carbohydrazide] were > 1000 nM and > 10000 nM.
Taken in the same sequence, the figures for `COc1cc(/C=N/NC(=O)c2cncc(-c3ccc(OC)cc3C)n2)cc(OC)c1` [Compound 109, (E)-N′-(3,5-dimethoxybenzylidene)-6-(4-methoxy-2-methylphenyl)pyrazine-2-carbohydrazide] were 149 nM and 566 nM.
On the same counts, the results for `COc1ccc(-c2cncc(C(=O)N/N=C/c3ccc(F)cc3)n2)cc1` [Compound 60, (E)-N′-(4-fluorobenzylidene)-6-(4-methoxyphenyl)pyrazine-2-carbohydrazide] are 340 nM and 5190 nM.
`COc1cc(/C=N/NC(=O)c2cncc(-c3ccccc3N3CCOCC3)n2)cc(OC)c1` [Compound 114]: the IC50 was > 1000 nM in assay [1] and > 10000 nM in assay [2].
Taken in the same sequence, the figures for `COc1cc(/C=N/NC(=O)c2cncc(-c3cccc(F)c3)n2)cc(OC)c1` [Compound 94, (E)-N′-(3,5-dimethoxybenzylidene)-6-(3-fluorophenyl)pyrazine-2-carbohydrazide] were > 1000 nM and > 10000 nM.
On the same counts, the results for `COc1ccc(-c2nccnc2C(=O)N/N=C/c2cc(OC)cc(OC)c2)cc1` [Compound 90, (E)-N′-(3,5-dimethoxybenzylidene)-3-(4-methoxyphenyl)pyrazine-2-carbohydrazide] are > 1000 nM and > 10000 nM.
Taken in the same sequence, the figures for `COc1cc(/C=N/NC(=O)c2cnc(OC)cn2)cc(OC)c1` [Compound 142, (E)-N′-(3,5-dimethoxybenzylidene)-5-methoxypyrazine-2-carbohydrazide] were > 1000 nM and > 10000 nM.
Turning to `COc1cc(/C=N/NC(=O)c2cncc(-c3ccc(OC4CCCCC4)cc3)n2)cc(OC)c1` [Compound 89, (E)-6-(4-(cyclohexyloxy)phenyl)-N′-(3,5-dimethoxybenzylidene)pyrazine-2-carbohydrazide], the IC50 was 149 nM in assay [1] and 212 nM in assay [2].
On the same counts, the results for `COc1cc(/C=N/NC(=O)c2cncc(-c3ccc(OC(C)C)cc3)n2)cc(OC)c1` [Compound 29, (E)-N′-(3,5-dimethoxybenzylidene)-6-(4-isopropoxyphenyl)pyrazine-2-carbohydrazide] are 51.3 nM and 63.1 nM.
On the same counts, the results for `COc1cc(/C=N/NC(=O)c2cncc(-c3ccc(OCC4CC4)cc3)n2)cc(OC)c1` [Compound 152, (E)-6-(4-(cyclopropylmethoxy)phenyl)-N′-(3,5-dimethoxybenzylidene)pyrazine-2-carbohydrazide] are 88.4 nM and 138 nM.
Taken in the same sequence, the figures for `CCOc1ccc(-c2cncc(C(=O)N/N=C/c3cc(F)cc(OC)c3)n2)cc1` [Compound 15, (E)-6-(4-ethoxyphenyl)-N′-(3-fluoro-5-methoxybenzylidene)pyrazine-2-carbohydrazide] were 25.2 nM and 243 nM.
`COc1cc(/C=N/NC(=O)c2cncc(-c3ccc(OC)cc3OC(C)C)n2)cc(OC)c1` [Compound 156, (E)-N′-(3,5-dimethoxybenzylidene)-6-(2-isopropxy-4-methoxyphenyl)pyrazine-2-carbohydrazide]: the IC50 in assay [1] is > 1000 nM; in assay [2] it was 4790 nM.
Taken in the same sequence, the figures for `COc1ccc(-c2cncc(C(=O)N/N=C/c3ccc(OC)cc3OC)n2)cc1` [Compound 78, (E)-N′-(2,4-dimethoxybenzylidene)-6-(4-methoxyphenyl)pyrazine-2-carbohyrazide] were 841 nM and 7150 nM.
Taken in the same sequence, the figures for `COc1cc(/C=N/NC(=O)c2cncc(N3CCOCC3)n2)cc(OC)c1` [Compound 126, (E)-N′-(3,5-dimethoxybenzylidene)-6-morpholinopyrazine-2-carbohydrazide] were > 1000 nM and > 10000 nM.
Taken in the same sequence, the figures for `CCCOc1cccc(/C=N/NC(=O)c2cncc(-c3ccc(OC)cc3)n2)c1` [Compound 40, (E)-6-(4-methoxyphenyl)-N′-(3-propoxybenzylidene)pyrazine-2-carbohydrazide] were 277 nM and 3360 nM.
`CC1=C(/C=N/NC(=O)c2cncc(-c3ccc(OC(C)C)cc3)n2)CCCC1` [Compound 199, (E)-6-(4-isopropoxyphenyl)-N′-((2-methylcyclohept-1-en-1-yl)methylene)pyrazine-2-carbohydrzide]: the IC50 turned out to be 166 nM in assay [1] and 1740 nM in assay [2].
On the same counts, the results for `CCOc1ccc(-c2cncc(C(=O)N/N=C/c3cccc(OC)c3Cl)n2)cc1` [Compound 19, (E)-N′-(2-chloro-3-methoxybenzylidene)-6-(4-ethoxyphenyl)pyrazine-2-carbohydrazide] are 93.5 nM and 575 nM.
For `COc1cc(/C=N/NC(=O)c2cncc(-c3ccc(OC)cc3Cl)n2)cc(OC)c1` [Compound 122], the IC50 was > 1000 nM in assay [1] and 5120 nM in assay [2].
`Cc1cc(C)cc(/C=N/NC(=O)c2cncc(-c3ccc(OCC(C)C)cc3)n2)c1` [Compound 86, (E)-N′-(3,5-dimethylbenzylidene)-6-(4-isobutoxyphenyl)pyrazine-2-carbohydrazide]: the IC50 stood at 209 nM in assay [1] and 141 nM in assay [2].
For the compound `CCCOc1ccc(-c2cncc(C(=O)N/N=C/c3cc(OC)cc(OC)c3)n2)cc1` [Compound 32, N′-[(E)-(3,5-dimethoxyphenyl)methylidene]-6-(4-propoxyphenyl)pyrazine-2-carbohydrazide], the IC50 was 73.9 nM in assay [1] and 210 nM in assay [2].
For the compound `CCOc1ccc(-c2cnc(-c3ccccc3)c(C(=O)N/N=C/c3cc(OC)cc(OC)c3)n2)cc1` [Compound 147, (E)-N′-(3,5-dimethoxybenzylidene)-6-(4-ethoxyphenyl)-3-phenylpyrazine-2-carbohydrazide], the IC50 in assay [1] and in assay [2] was > 300 nM in each case.
For the compound `CCCCOc1ccc(-c2cncc(C(=O)N/N=C/c3cc(C)cc(C)c3)n2)cc1` [Compound 84, (E)-6-(4-butoxyphenyl)-N′-(3,5-dimethylbenzylidene)pyrazine-2-carbohydrazide], the results for the IC50 in assay [1] and in assay [2] were 152 nM and 179 nM, respectively.
